Source: publication PMC6045421 (ACS Omega, 2018)
Entries after “also recorded” stand apart in the source; their conditions may differ.

What was measured:
[1] = target: recombinant human IRAP (Homo sapiens, UniProt Q9UIQ6); type: biochemical; conditions: HEK293
[2] = tested on: aminopeptidase N (APN); conditions: cited from earlier work
[3] = tested on: leukotriene A4 hydrolase (LTA4H); conditions: cited from earlier work
[4] = tested on: primary hippocampal neuron cultures; conditions: primary hippocampal neuron cultures from mice; cited from earlier work
[5] = tested on: IRAP from Chinese hamster ovary (CHO) cells; conditions: read-out: IC50 in CHO cells, hamster enzyme; cited from earlier work
[6] = Stability in human liver microsomes; type: in vitro ADME; conditions: HLM and MLM

recombinant human IRAP, sequence (Q9UIQ6 whole entry): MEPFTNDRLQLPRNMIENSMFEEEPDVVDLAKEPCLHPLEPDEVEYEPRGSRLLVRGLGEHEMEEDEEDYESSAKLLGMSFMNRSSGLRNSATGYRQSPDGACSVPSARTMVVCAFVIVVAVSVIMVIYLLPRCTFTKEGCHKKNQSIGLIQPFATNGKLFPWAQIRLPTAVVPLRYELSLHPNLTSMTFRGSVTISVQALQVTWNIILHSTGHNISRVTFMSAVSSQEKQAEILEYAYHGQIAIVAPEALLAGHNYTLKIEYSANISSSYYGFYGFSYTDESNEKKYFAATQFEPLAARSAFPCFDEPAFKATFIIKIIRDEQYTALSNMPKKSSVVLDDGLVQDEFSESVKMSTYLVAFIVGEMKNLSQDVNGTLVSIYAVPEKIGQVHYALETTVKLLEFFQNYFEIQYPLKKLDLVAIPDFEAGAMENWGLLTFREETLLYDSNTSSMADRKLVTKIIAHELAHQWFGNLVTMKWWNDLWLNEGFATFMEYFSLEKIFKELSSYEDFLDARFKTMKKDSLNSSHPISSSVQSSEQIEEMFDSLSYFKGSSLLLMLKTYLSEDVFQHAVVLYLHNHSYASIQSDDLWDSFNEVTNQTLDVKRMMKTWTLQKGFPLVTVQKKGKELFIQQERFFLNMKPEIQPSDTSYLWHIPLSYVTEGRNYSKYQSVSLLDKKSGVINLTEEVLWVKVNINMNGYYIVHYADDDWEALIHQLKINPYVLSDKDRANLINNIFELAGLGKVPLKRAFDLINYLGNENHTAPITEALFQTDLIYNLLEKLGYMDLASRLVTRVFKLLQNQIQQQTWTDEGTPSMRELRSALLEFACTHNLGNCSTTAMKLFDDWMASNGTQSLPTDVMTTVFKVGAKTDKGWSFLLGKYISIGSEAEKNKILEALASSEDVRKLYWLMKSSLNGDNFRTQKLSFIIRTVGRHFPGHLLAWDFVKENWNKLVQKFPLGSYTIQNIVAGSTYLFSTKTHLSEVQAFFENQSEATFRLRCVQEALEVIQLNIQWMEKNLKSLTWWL

IRAP inhibition (in words) [1] | stability in the microsome assays (in words) [6] | Structure (SMILES) | inhibition of APN relative to IRAP (in words) [2] | inhibition of LTA4H relative to IRAP (in words) [3] | density of dendritic spines (in words) [4] | IC50 [5] [µM]
complete lack of inhibitory activity | – | O=C(Nc1cccc(-c2nnn[nH]2)c1)c1cc(Br)c(Cl)s1 [Compound 12] | – | – | – | –
submicromolar activity | – | O=S(=O)(Nc1cccc(-c2nnn[nH]2)c1)c1cc(Cl)c(Cl)s1 [Compound 13] | – | – | – | –
totally inactive | – | O=S(=O)(Nc1cccc(-c2nnn[nH]2)c1)c1ccc(-c2ccccc2)cc1 [Compound 20] | – | – | – | –
submicromolar | – | O=S(=O)(Nc1cccc(-c2nnn[nH]2)c1)c1ccc(Cl)c2nonc12 [Compound 21] | much lower efficacy | much lower efficacy | – | –
submicromolar potency | – | Cc1ccc(S(=O)(=O)Nc2cccc(-c3nnn[nH]3)c2)cc1C [Compound 25] | much lower efficacy | much lower efficacy | enhance the density of dendritic spines | 3.1
submicromolar potency | – | O=S(=O)(Nc1cccc(-c2nnn[nH]2)c1)c1cc(Cl)c(Cl)cc1Cl [Compound 26] | much lower efficacy | much lower efficacy | enhance the density of dendritic spines | 2.9

Structure (SMILES) | IRAP inhibition (in words) [1] | stability in the microsome assays (in words) [6] | inhibition of APN relative to IRAP (in words) [2] | inhibition of LTA4H relative to IRAP (in words) [3] | density of dendritic spines (in words) [4] | IC50 [5] [µM]
O=S(=O)(Nc1cccc(-c2nnn[nH]2)c1)c1cc(C(F)(F)F)ccc1C(F)(F)F [Compound 29, N-(3-(1H-Tetrazol-5-yl)phenyl)-2,5-bis(trifluoromethyl)benzenesulfonamide] | submicromolar potency; also recorded: submicromolar affinity | high metabolic stability | – | – | – | –
